Measurements as given in ChEMBL document CHEMBL5223077, “Recent advances on synthesis and biological activities of aurones” (Bioorg Med Chem, 2021).
≈ marks a conversion by molar mass, not a printed value.

Tests used:
[1] = test system: Mycobacterium tuberculosis; test: Antimycobacterial activity against multidrug resistant Mycobacterium tuberculosis; format: functional
[2] = test system: Mycobacterium tuberculosis; test: Antimycobacterial activity against extensively drug resistant Mycobacterium tuberculosis; format: functional

Compound CC(=O)N1/C(=C\c2ccc(-c3ccsc3)cc2)C(=O)c2ccccc21 has an MIC [1] of 7.55 µM (≈ 2.61 µg/mL) and an MIC [2] of 7.55 µM (≈ 2.61 µg/mL).
